According to patent US20230339937A1, “CONDENSED RING COMPOUNDS THAT INHIBIT H-PGDS” (SATO PHARMACEUTICAL CO., LTD., priority 2020, published 2023):
pIC50: −log10 of the molar value.

Target: T1, Recombinant human H-PGDS (Homo sapiens, UniProt O60760)
T1 construct: made in house; host or cells: E. coli
Experiment: H-PGDS inhibitory activity (prostaglandin D2 production from prostaglandin H2, measured by LC-MS/MS)
Assay type: biochemical
Settings: recombinant human H-PGDS 1.0 nM expressed in E. coli; prostaglandin H2 25 μM; preincubated 15 minutes on ice, reacted on ice for 1 minute; concentration that inhibits prostaglandin D2 production by 50%
Outline: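 Recombinant human H-PGDS (E. coli-expressed, 1.0 nM final) preincubated with compound 15 min on ice in 20 mM Tris-HCl pH 8.0, 2 mM MgCl2, 2 mM GSH, 0.5 mg/mL γ-globulin. Reaction with 25 µM PGH2 run 1 min on ice, stopped with FeCl2/citric acid, PGD2 quantified by LC-MS/MS. Activity expressed as % of DMSO control after subtracting non-enzymatic PGD2.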

T1 sequence (O60760 whole entry): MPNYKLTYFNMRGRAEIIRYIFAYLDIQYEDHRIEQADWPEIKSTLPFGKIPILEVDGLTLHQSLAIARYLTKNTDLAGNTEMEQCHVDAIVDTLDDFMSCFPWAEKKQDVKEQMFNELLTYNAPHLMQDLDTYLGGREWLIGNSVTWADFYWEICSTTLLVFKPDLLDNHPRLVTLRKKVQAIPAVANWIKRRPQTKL

| Structure (SMILES) | pIC50 |
| --- | --- |
| O=C(N[C@H]1CC[C@H](NCC(F)(F)F)CC1)c1ccc(-c2nccc3occc23)cc1 [Example 119, 4-(furo[3,2-c]pyridin-4-yl)-N-{trans-4-[(2,2,2-trifluoroethyl)amino]cyclohexyl}benzamide] | 8.89 |
| O=C(N[C@H]1CC[C@H](CO)CC1)c1ccc(-c2nccc3occc23)cc1 [Example 120, 4-(furo[3,2-c]pyridin-4-yl)-N-[trans-4-(hydroxymethyl)cyclohexyl]benzamide] | 8.48 |
| CC(O)[C@H]1CC[C@H](NC(=O)c2ccc(-c3nccc4occc34)cc2)CC1 (stereo partly drawn) [Example 121, 4-(furo[3,2-c]pyridin-4-yl)-N-[trans-4-(1-hydroxyethyl)cyclohexyl]benzamide] | 8.89 |
| CC(C)(O)C1CC2(CC(NC(=O)c3ccc(-c4nccc5occc45)cc3)C2)C1 (centres unmarked) [Example 122, 4-(furo[3,2-c]pyridin-4-yl)-N-[6-(2-hydroxypropan-2-yl)spiro[3.3]heptan-2-yl]benzamide] | 8.89 |
| O=C(NC1CCN(c2ccncc2)CC1)c1ccc(-c2nccc3occc23)cc1 [Example 123, 4-(furo[3,2-c]pyridin-4-yl)-N-[1-(pyridin-4-yl)piperidin-4-yl]benzamide] | 8.74 |
| CC(C)(O)[C@H]1CC[C@H](NC(=O)c2ccc(-c3nccc4occc34)cc2)CC1 [Example 124, 4-(furo[3,2-c]pyridin-4-yl)-N-[trans-4-(2-hydroxypropan-2-yl)cyclohexyl]benzamide] | 8.74 |
| CC(C)(O)[C@H]1CC[C@H](NC(=O)c2ccc(-c3nccc4occc34)c(F)c2)CC1 [Example 125, 3-fluoro-4-(furo[3,2-c]pyridin-4-yl)-N-[trans-4-(2-hydroxypropan-2-yl)cyclohexyl]benzamide] | 8.66 |
| CC(C)(O)[C@H]1CC[C@H](NC(=O)c2ccc(-c3nccc4occc34)cc2F)CC1 [Example 126, 2-fluoro-4-(furo[3,2-c]pyridin-4-yl)-N-[trans-4-(2-hydroxypropan-2-yl)cyclohexyl]benzamide] | 7.89 |
| Cc1cc2occc2c(-c2ccc(C(=O)N[C@H]3CC[C@H](C(C)(C)O)CC3)cc2)n1 [Example 127, N-[trans-4-(2-hydroxypropan-2-yl)cyclohexyl]-4-(6-methylfuro[3,2-c]pyridin-4-yl)benzamide] | 8.80 |
| Cc1cc2c(-c3ccc(C(=O)N[C@H]4CC[C@H](C(C)(C)O)CC4)cc3)nccc2o1 [Example 128, N-[trans-4-(2-hydroxypropan-2-yl)cyclohexyl]-4-(2-methylfuro[3,2-c]pyridin-4-yl)benzamide] | 8.46 |
| Cc1cnc(-c2ccc(C(=O)N[C@H]3CC[C@H](C(C)(C)O)CC3)cc2)c2ccoc12 [Example 129, N-[trans-4-(2-hydroxypropan-2-yl)cyclohexyl]-4-(7-methylfuro[3,2-c]pyridin-4-yl)benzamide] | 8.62 |
| Cc1coc2ccnc(-c3ccc(C(=O)N[C@H]4CC[C@H](C(C)(C)O)CC4)cc3)c12 [Example 130, N-[trans-4-(2-hydroxypropan-2-yl)cyclohexyl]-4-(3-methylfuro[3,2-c]pyridin-4-yl)benzamide] | 8.17 |
| CC(C)(O)[C@H]1CC[C@H](NC(=O)c2ccc(-c3nccc4occc34)c(Cl)c2)CC1 [Example 131, 3-chloro-4-(furo[3,2-c]pyridin-4-yl)-N-[trans-4-(2-hydroxypropan-2-yl)cyclohexyl]benzamide] | 7.59 |
| Cc1cc(C(=O)N[C@H]2CC[C@H](C(C)(C)O)CC2)ccc1-c1nccc2occc12 [Example 132, 4-(furo[3,2-c]pyridin-4-yl)-N-[trans-4-(2-hydroxypropan-2-yl)cyclohexyl]-3-methylbenzamide] | 7.13 |
| CC(C)(O)[C@H]1CC[C@H](NC(=O)c2ccc(-c3nccc4occc34)c(C#N)c2)CC1 [Example 133, 3-cyano-4-(furo[3,2-c]pyridin-4-yl)-N-[trans-4-(2-hydroxypropan-2-yl)cyclohexyl]benzamide] | 7.80 |
| CC(C)(O)[C@H]1CC[C@H](NC(=O)c2ccc(-c3nccc4occc34)c(O)c2)CC1 [Example 134, 4-(furo[3,2-c]pyridin-4-yl)-3-hydroxy-N-[trans-4-(2-hydroxypropan-2-yl)cyclohexyl]benzamide] | 8.18 |
| CC(C)(O)[C@H]1CC[C@H](NC(=O)c2ccc(-c3ncc(CO)c4occc34)cc2)CC1 [Example 135, 4-[7-(hydroxymethyl)furo[3,2-c]pyridin-4-yl]-N-[trans-4-(2-hydroxypropan-2-yl)cyclohexyl]benzamide] | 7.85 |
| CC(C)(O)[C@H]1CC[C@H](NC(=O)c2ccc(-c3ncc(F)c4occc34)cc2)CC1 [Example 136, 4-(7-fluorofuro[3,2-c]pyridin-4-yl)-N-[trans-4-(2-hydroxypropan-2-yl)cyclohexyl]benzamide] | 8.05 |
| C=Cc1cnc(-c2ccc(C(=O)N[C@H]3CC[C@H](C(C)(C)O)CC3)cc2)c2ccoc12 [Example 137, N-[trans-4-(2-hydroxypropan-2-yl)cyclohexyl]-4-(7-vinylfuro[3,2-c]pyridin-4-yl)benzamide] | 7.92 |

| Structure (SMILES) | pIC50 |
| --- | --- |
| CCc1cnc(-c2ccc(C(=O)N[C@H]3CC[C@H](C(C)(C)O)CC3)cc2)c2ccoc12 [Example 138, 4-(7-ethylfuro[3,2-c]pyridin-4-yl)-N-[trans-4-(2-hydroxypropan-2-yl)cyclohexyl]benzamide] | 7.82 |
| CC(C)(O)[C@H]1CC[C@H](NC(=O)c2ccc(-c3ncc(C#N)c4occc34)cc2)CC1 [Example 139, 4-(7-cyanofuro[3,2-c]pyridin-4-yl)-N-[trans-4-(2-hydroxypropan-2-yl)cyclohexyl]benzamide] | 6.60 |
| CC(C)(O)[C@H]1CC[C@H](NC(=O)c2ccc(-c3ncc(C(N)=O)c4occc34)cc2)CC1 [Example 140, 4-(4-([trans-4-(2-hydroxypropan-2-yl)cyclohexyl]carbamoyl)phenyl)furo[3,2-c]pyridine-7-carboxamide] | 6.65 |
| CC(O)c1cnc(-c2ccc(C(=O)N[C@H]3CC[C@H](C(C)(C)O)CC3)cc2)c2ccoc12 (stereo partly drawn) [Example 141, 4-[7-(1-hydroxyethyl)furo[3,2-c]pyridin-4-yl]-N-[trans-4-(2-hydroxypropan-2-yl)cyclohexyl]benzamide] | 6.80 |
| O=C(NC1CCNCC1)c1ccc(-c2nccc3occc23)cc1 [Example 142, 4-(furo[3,2-c]pyridin-4-yl)-N-(piperidin-4-yl)benzamide] | 8.47 |
| O=C(NC1CCN(c2ncccn2)CC1)c1ccc(-c2nccc3occc23)cc1 [Example 143, 4-(furo[3,2-c]pyridin-4-yl)-N-[1-(pyrimidin-2-yl)piperidin-4-yl]benzamide] | 9.11 |
| O=C(NC1CCN(c2ncccc2F)CC1)c1ccc(-c2nccc3occc23)cc1 [Example 144, N-[1-(3-fluoropyridin-2-yl)piperidin-4-yl]-4-(furo[3,2-c]pyridin-4-yl)benzamide] | 8.82 |
| O=C(NC1CCN(c2cnccn2)CC1)c1ccc(-c2nccc3occc23)cc1 [Example 145, 4-(furo[3,2-c]pyridin-4-yl)-N-[1-(pyrazin-2-yl)piperidin-4-yl]benzamide] | 8.92 |
| O=C(NC1CCN(c2cc(Cl)ncn2)CC1)c1ccc(-c2nccc3occc23)cc1 [Example 146, N-[1-(6-chloropyrimidin-4-yl)piperidin-4-yl]-4-(furo[3,2-c]pyridin-4-yl)benzamide] | 9.00 |
| O=C(NC1CCN(c2cccc(F)n2)CC1)c1ccc(-c2nccc3occc23)cc1 [Example 147, N-[1-(6-fluoropyridin-2-yl)piperidin-4-yl]-4-(furo[3,2-c]pyridin-4-yl)benzamide] | 9.00 |
| O=C(NC1CCN(c2ccc(Cl)nn2)CC1)c1ccc(-c2nccc3occc23)cc1 [Example 148, N-[1-(6-chloropyridazin-3-yl)piperidin-4-yl]-4-(furo[3,2-c]pyridin-4-yl)benzamide] | 8.74 |
| O=C(NC1CCN(c2ccc(F)cn2)CC1)c1ccc(-c2nccc3occc23)cc1 [Example 149, N-[1-(5-fluoropyridin-2-yl)piperidin-4-yl]-4-(furo[3,2-c]pyridin-4-yl)benzamide] | 8.74 |
| Cc1ccnc(N2CCC(NC(=O)c3ccc(-c4nccc5occc45)cc3)CC2)c1 [Example 150, 4-(furo[3,2-c]pyridin-4-yl)-N-[1-(4-methylpyridin-2-yl)piperidin-4-yl]benzamide] | 8.77 |
| Cc1ccc(N2CCC(NC(=O)c3ccc(-c4nccc5occc45)cc3)CC2)nc1 [Example 151, 4-(furo[3,2-c]pyridin-4-yl)-N-[1-(5-methylpyridin-2-yl)piperidin-4-yl]benzamide] | 8.85 |
| Cc1cccc(N2CCC(NC(=O)c3ccc(-c4nccc5occc45)cc3)CC2)n1 [Example 152, 4-(furo[3,2-c]pyridin-4-yl)-N-[1-(6-methylpyridin-2-yl)piperidin-4-yl]benzamide] | 8.64 |
| Cc1cccnc1N1CCC(NC(=O)c2ccc(-c3nccc4occc34)cc2)CC1 [Example 153, 4-(furo[3,2-c]pyridin-4-yl)-N-[1-(3-methylpyridin-2-yl)piperidin-4-yl]benzamide] | 8.39 |
| O=C(NC1CCN(c2ncc(Br)cn2)CC1)c1ccc(-c2nccc3occc23)cc1 [Example 154, N-[1-(5-bromopyrimidin-2-yl)piperidin-4-yl]-4-(furo[3,2-c]pyridin-4-yl)benzamide] | 8.20 |
| Cc1ccnc(N2CCC(NC(=O)c3ccc(-c4nccc5occc45)cc3)CC2)n1 [Example 155, 4-(furo[3,2-c]pyridin-4-yl)-N-[1-(4-methylpyrimidin-2-yl)piperidin-4-yl]benzamide] | 8.82 |
| Cc1cnc(N2CCC(NC(=O)c3ccc(-c4nccc5occc45)cc3)CC2)nc1 [Example 156, 4-(furo[3,2-c]pyridin-4-yl)-N-[1-(5-methylpyrimidin-2-yl)piperidin-4-yl]benzamide] | 8.80 |
